Data taken from patent US20230332232A1, “COMPOSITIONS AND METHODS FOR DIAGNOSING AND TREATING A DYSTONIA” (Duke University, priority 2020, published 2023).

Test system: wild-type (WT) murine embryonic fibroblasts (MEFs)
Test: Untargeted LC/MS/MS proteomics of EVs from WT MEFs exposed 24 hours to drug, compared with untreated WT MEFs
Format: cell-based, mouse
Protocol: Methods for isolation and purification of exosomes and extracellular vesicles (EV) were extensively reviewed. Experiments were performed to arrive at a robust and reproducible protocol. The protocol used herein is that set forth in Théry et al, 2006, which is incorporated by reference for it teaching of this protocol. This protocol involves depleting serum-derived EVs from cell culture media by overnight ultracentrifugation and exchanging media for 1% FBS EV-depleted media. Media is then collected from cells following a 24-hour conditioning period and EVs are isolated by 18-hour ultracentrifugation at 100,000 g (FIG. 1A).
EVs were isolated from media of cultured murine embryonic fibroblasts (MEFs) prepared in-house according to protocols described by Xu 2005 from DYT1 knockin mice (Tor1a^delGAG/+) (Goodchild R E, et al. (2005) Neuron. 48:923-932) and littermate wild-type (WT) controls. The cultured MEFs from the DYT1 mice were exposed for 24 hours to Ritonavir (RTV) while the MEFs from WT mice were exposed to vehicle, ISRIB, or Salubrinal (SAL). The EVs isolated from these WT cells and DYT1 were characterized by untargeted proteomics and RNA-seq to identify differentially expressed proteins and RNAs as candidate biomarkers. Experimenter and Proteomics core staff were blinded to genotype of cell cultures throughout preparation and analysis phases. EV isolation was confirmed by Western immunoblot documenting presence of the exosomal marker (TSG101) and absence of the endoplasmic reticulum (ER) marker (CANX) (FIG. 1B (Cohort 1) and FIG. 1C (Cohort 2)).
Following the bicinchoninic acid assay (BCA) analysis and Western immunoblot of a portion of samples for QC, 11.6 μg-129.2 μg of EV protein lysates in RIPA buffer were sent to the Duke Proteomics and Metabolomics Shared Resource core facility for LC/MS/MS quantitative proteomic analysis. Samples were first normalized to 20 μg and spiked with undigested casein at a total of 40 fmol/μg, 80 fmol/μg, or 160 fmol/μg, then reduced with 10 mM dithiolthreitol for 30 minute at 80° C. and alkylated with 20 mM iodoacetamide for 30 minutes at room temperature. Next, the samples were supplemented with a final concentration of 1.2% phosphoric acid and 741 μL of S-Trap (Protifi) binding buffer (90% MeOH/100 mM […]). Proteins were trapped on the S-Trap, digested using 20 ng/μL sequencing grade trypsin (Promega) for 1 hour at 47° C., and eluted using 50 mM TEAB, followed by 0.2% FA, and lastly using 50% CAN/0.2% FA. All samples were then lyophilized to dryness and resuspended in 40 μL 1% TFA/2% acetonitrile containing 12.5 fmol/μL yeast alcohol dehydrogenase (ADH_YEAST). A QC Pool was created from 3 uL of each sample. All QC Pools were run periodically throughout the acquisition period.
Quantitative LC/MS/MS was performed on 2 μL of each sample, using a nanoAcquity UPLC system (Waters Corp) coupled to a Thermo Orbitrap Fusion Lumos high resolution accurate mass tandem mass spectrometer (Thermo) via a nanoelectrospray ionization source. Briefly, the sample was first trapped on a Symmetry C18 20 mm×180 μm trapping column (5 μL/min at 99.9/0.1 v/v water/acetonitrile), after which the analytical separation was performed using a 1.8 μm Acquity HSS T3 C18 75 μm×250 mm column (Waters Corp.) with a 90 minute linear gradient of 5% to 30% acetonitrile with 0.1% formic acid at a flow rate of 400 nanoliters/minute (nL/min) with a column temperature of 55° C. Data collection on the Fusion Lumos mass spectrometer was performed in a data-dependent acquisition (DDA) mode of acquisition with a r=120,000 (@ m/z 200) full MS scan from m/z 375-1500 with a target AGC value of 2e5 ions. MS/MS scans were acquired at Rapid scan rate (Ion Trap) with an AGC target of 5e3 ions and a max injection time of 100 ms. The total cycle time for MS and MS/MS scans was 2 seconds. A 20 second dynamic exclusion was employed to increase depth of coverage. The total analysis cycle time for each sample injection was approximately 2 hours. […]

Measured: ISRIB Direction Same as dE?

O=C(COc1ccc(Cl)cc1)NC1CCC(NC(=O)COc2ccc(Cl)cc2)CC1 (stereo not shown) [ISRIH]
yes: EV protein: 26S proteasome non-ATPase regulatory subunit 8 | EV protein: 60S [?] subunit biogenesis protein [?] homolog | EV protein: 116 kDa [?] small nuclear ribonucleoprotein component | EV protein: AP-3 complex subunit [?] | EV protein: ATP- binding cassette sub-family [?] member 1 | EV protein: ATP-dependent RNA helicase [?] | EV protein: Acetyl-CoA carboxylase 1 | EV protein: Acyl-protein thioesterase 2 | EV protein: Anaphase-promoting complex subunit 2 | EV protein: Anaphase-promoting complex subunit 4 | EV protein: Anaphase-promoting complex subunit 5 | EV protein: Anaphase-promoting complex subunit 7 | EV protein: Apolipoprotein M | EV protein: Cell [?] cycle protein [?] homolog | EV protein: Cell division cycle protein 27 homolog | EV protein: Coiled-coil domain-containing protein 22 | EV protein: Cullin-2 | EV protein: Cullin-5 | EV protein: Cullin-7 | EV protein: Cytosolic purine [?] -nucleotidase | EV protein: DNA [?] (r264) | EV protein: DNA [?] licensing factor MCM4 | EV protein: DNA ligase 1 | EV protein: DNA replication licensing factor MCM5 | EV protein: DNA replication licensing factor [?] | EV protein: DNA-directed RNA polymerase II subunit RPB1 | EV protein: DNA-directed RNA polymerase II subunit RPB2 | EV protein: DNA-directed RNA polymerase II subunit RPB3 | EV protein: DNA-directed RNA polymerase [?] subunit RPA2 | EV protein: DNA-directed RNA polymerases I, II, and III subunit RPABC3 | EV protein: DNA-directed RNA polymerases I, II, and III subunit [?] | EV protein: Developmentally-regulated GTP-binding protein 2 | EV protein: Double-strand-break repair protein rad21 homolog | EV protein: Dual specificity mitogen-activated protein kinase kinase 4 | EV protein: Dynactin subunit 4 | EV protein: E3 ubiquitin-protein ligase [?] | EV protein: Elongin-B | EV protein: Exosome complex exonuclease RRP44 | EV protein: Gamma-tubulin complex component 2 | EV protein: Glucose-6-phosphate 1-dehydrogenase [?] | EV protein: Glycosylated lysosomal membrane protein | EV protein: Glycylpeptide N-tetradecanoyltransferase 1 | EV protein: Golgi reassembly-stacking protein 2 | EV protein: Histone-arginine methyltransterase CARM1 | EV protein: Immunity-related GTPase family M protein 1 | EV protein: Interleukin enhancer-binding factor 3 | EV protein: Leucyl-cystinyl aminopeptidase | EV protein: Lysine-specific histone demethylase [?] | EV protein: Mediator [?] RNA polymerase II transcription subunit 23 | EV protein: Metastasis-associated protein [?] (r222) | EV protein: Metastasis-associated protein [?] (r261) | EV protein: Methyl-CpG-binding domain protein [?] | EV protein: Microtubule-associated protein [?] | EV protein: N-alpha-acetyltransferase 10 | EV protein: Nuclear [?] complex protein [?] | EV protein: Nuclear cap-binding protein subunit 1 | EV protein: NudC domain-containing protein 1 | EV protein: Phosphoribosyl pyrophosphate synthase-associated protein 1 | EV protein: Probable ubiquitin carboxyl-terminal hydrolase [?] | EV protein: Protein O-GlcNAcase | EV protein: Protein RMD5 homolog A | EV protein: Protein [?] 14 homolog | EV protein: Protein transport protein [?] | EV protein: Ran-binding protein 10 | EV protein: Ribosome biogenesis protein BOP1 | EV protein: Ribosome production factor 2 homolog | EV protein: Serine threonine-protein phosphatase 2A 56 kDa regulatory subunit gamma isoform | EV protein: Serine threonine-protein phosphatase 6 catalytic subinit | EV protein: Sorting nexin-1 | EV protein: Splicing factor 3B subunit 4 | EV protein: Structural maintenance of [?] protein 2 | EV protein: WASH complex subunit 5 | EV protein: WD repeat-containing protein [?] | EV protein: WW domain-binding protein 2 | EV protein: [?] 2 (r185) | EV protein: [?] (r186) | EV protein: [?] -1 (r187) | EV protein: [?] -1 (r232) | EV protein: [?] -conjucating enxyme [?] | EV protein: [?] -promoting complex subunit 1 | EV protein: [?] -related [?] -associated actin-dependent regulator [?] chromatin subfamily A member 5 | EV protein: [?] complex subunit 2 | EV protein: [?] kinase | EV protein: [?] repeat-containing protein 5A | EV protein: [?] small nuclear ribonucleoprotein 40 kDa protein | EV protein: [?] small nucleolar RNA-associated protein 15 homolog | EV protein: [?] ubiquitin-protein ligase [?] | EV protein: p21-activated protein kinase-interacting protein 1 | EV protein: transportin-3 | WT MEF EVs, protein: DNA replication licensing factor MCM6 | WT MEF EVs, protein: DNA-directed RNA polymerases I and III subunit RPAC1 | WT MEF EVs, protein: Protein arginine N-methyltransferase 3 | WT MEF EVs, protein: Scavenger receptor class B member 1 | WT MEF EVs, protein: Serine threonine-protein phosphatase 2A 55 kDa regulatory subunit B alpha isoform | WT MEF EVs, protein: Small nuclear ribonucleoprotein-associated protein B | WT MEF EVs, protein: WASH complex subunit 4 | WT MEF EVs, protein: WD repeat-containing protein 26
